Test results from ChEMBL document CHEMBL4184340, “Fragment-Based Discovery of a Potent, Orally Bioavailable Inhibitor That Modulates the Phosphorylation and Catalytic Activity of ERK1/2” (J Med Chem, 2018).

Experiments:
in vivo [1] = settings: Balb/c, mouse, po, 5 mg/kg
in vivo [2] = settings: Balb/c, mouse, po, 5 mg/kg; remark: listed apart in the source
in vivo [3] = settings: Balb/c, mouse, iv, 0.5 mg/kg
in vivo [4] = settings: Balb/c, mouse, po, 5 mg/kg; remark: listed apart in the source
in vivo [5] = settings: Balb/c, mouse, iv, 0.5 mg/kg; remark: listed apart in the source
in vitro = settings: human, Caco-2

Row | SMILES | AUC at 24 h (in vivo [1]) | half-life at 24 h (in vivo [2]) | Vd at 24 h (in vivo [3]) | bioavailability at 24 h (in vivo [4]) | clearance at 24 h (in vivo [5]) | Papp at 1 h, 10 µM (in vitro)
1 | C[C@H](C(=O)N[C@H](CO)c1ccccc1)N1Cc2ccc(-c3nc(NC4CCOCC4)ncc3Cl)cc2C1=O | 2600 ng·h/mL | 0.7 h | 1 L/kg | 70% | 23 mL/min/kg | 13 ×10⁻⁶ cm/s
2 | CN(C(=O)CN1Cc2ccc(-c3nc(NC4CCOCC4)ncc3Cl)cc2C1=O)C(C)(C)C | 5900 ng·h/mL | 0.7 h | 0.1 L/kg | 30% | 4.2 mL/min/kg | 22 ×10⁻⁶ cm/s
3 | Cc1cccc([C@@H](CO)NC(=O)[C@@H](C)N2Cc3ccc(-c4nc(NC5CCOCC5)ncc4Cl)cc3C2=O)c1 | 3700 ng·h/mL | 0.8 h | 0.6 L/kg | 59% | 13 mL/min/kg | 6.6 ×10⁻⁶ cm/s
4 | O=C(CN1Cc2ccc(-c3nc(NC4CCOCC4)ncc3Cl)cc2C1=O)NCc1ccccc1 | 6900 ng·h/mL | 1 h | 0.2 L/kg | 32% | 3.8 mL/min/kg | –
5 | O=C1c2cc(-c3nc(NC4CCOCC4)ncc3Cl)ccc2CN1CCN1CCOCC1 | 1800 ng·h/mL | 2 h | 0.2 L/kg | 32% | 15 mL/min/kg | 40 ×10⁻⁶ cm/s
6 | CC(C)(C)NC(=O)CN1Cc2ccc(-c3nc(NC4CCOCC4)ncc3Cl)cc2C1=O | 530 ng·h/mL | 1 h | 0.2 L/kg | 8% | 14 mL/min/kg | 17 ×10⁻⁶ cm/s
7 | COCCN1Cc2ccc(-c3nc(NC4CCOCC4)ncc3Cl)cc2C1=O | 50 ng·h/mL | 1 h | 0.05 L/kg | 1% | 17 mL/min/kg | 19 ×10⁻⁶ cm/s
8 | O=C(CN1Cc2ccc(-c3nc(NC4CCOCC4)ncc3Cl)cc2C1=O)NC(CO)c1ccccc1 (single isomer, unassigned) | 3000 ng·h/mL | 3 h | 0.6 L/kg | 41% | 11 mL/min/kg | 0.7 ×10⁻⁶ cm/s
